Test results published in the NIST ThermoML archive (doi:10.1016/j.jct.2005.09.004).

Experiments:
[1] = refractive index (Na D-line) (dimensionless); φn = volume fraction of the nth substance listed; conditions: 101 kPa, Liquid, Standard Abbe refractometry
[2] = xn = mol fraction of the nth substance listed; conditions: for surface tension liquid-gas: Drop volume; for mass density: 101 kPa, Liquid

C1CCCC1 [cyclopentane] + C1COCCO1
Conditions	mass density [kg/m3]	refractive index	surface tension liquid-gas [mN/m]
[1], 283.15 K, φ2 = 0.0438	–	1.41192	–
[1], 283.15 K, φ2 = 0.087	–	1.41201	–
[1], 283.15 K, φ2 = 0.1787	–	1.41266	–
[1], 283.15 K, φ2 = 0.2781	–	1.41381	–
[1], 283.15 K, φ2 = 0.3694	–	1.41511	–
[1], 283.15 K, φ2 = 0.4754	–	1.41686	–
[1], 283.15 K, φ2 = 0.5928	–	1.41854	–
[1], 283.15 K, φ2 = 0.7068	–	1.4208	–
[1], 283.15 K, φ2 = 0.7975	–	1.42271	–
[1], 283.15 K, φ2 = 0.9083	–	1.42517	–
[1], 283.15 K, φ2 = 0.9568	–	1.42621	–
[1], 298.15 K, φ2 = 0.0401	–	1.40332	–
[1], 298.15 K, φ2 = 0.0979	–	1.40358	–
[1], 298.15 K, φ2 = 0.1873	–	1.4043	–
[1], 298.15 K, φ2 = 0.2827	–	1.40556	–
[1], 298.15 K, φ2 = 0.3727	–	1.40698	–
[1], 298.15 K, φ2 = 0.4709	–	1.40874	–
[1], 298.15 K, φ2 = 0.5703	–	1.41064	–
[1], 298.15 K, φ2 = 0.6847	–	1.41303	–
[1], 298.15 K, φ2 = 0.785	–	1.41517	–
[1], 298.15 K, φ2 = 0.8986	–	1.41772	–
[1], 298.15 K, φ2 = 0.9436	–	1.41867	–
[1], 313.15 K, φ2 = 0.0434	–	1.39455	–
[1], 313.15 K, φ2 = 0.0858	–	1.39477	–
[1], 313.15 K, φ2 = 0.181	–	1.3956	–
[1], 313.15 K, φ2 = 0.2747	–	1.39691	–
[1], 313.15 K, φ2 = 0.3702	–	1.3985	–
[1], 313.15 K, φ2 = 0.472	–	1.40052	–
[1], 313.15 K, φ2 = 0.5688	–	1.40259	–
[1], 313.15 K, φ2 = 0.6767	–	1.40502	–
[1], 313.15 K, φ2 = 0.7759	–	1.40729	–
[1], 313.15 K, φ2 = 0.8977	–	1.41018	–
[1], 313.15 K, φ2 = 0.933	–	1.41105	–
[2], 283.15 K, x2 = 0.0516	766.94	–	–
[2], 283.15 K, x2 = 0.0615	–	–	24.4
[2], 283.15 K, x2 = 0.095	777.38	–	–
[2], 283.15 K, x2 = 0.121	–	–	24.58
[2], 283.15 K, x2 = 0.1824	–	–	24.76
[2], 283.15 K, x2 = 0.1944	802.55	–	–
[2], 283.15 K, x2 = 0.2656	–	–	25.04
[2], 283.15 K, x2 = 0.2987	830.28	–	–
[2], 283.15 K, x2 = 0.3973	857.59	–	–
[2], 283.15 K, x2 = 0.4058	–	–	25.63
[2], 283.15 K, x2 = 0.499	886.71	–	–
[2], 283.15 K, x2 = 0.5313	–	–	26.4
[2], 283.15 K, x2 = 0.6003	916.64	–	–
[2], 283.15 K, x2 = 0.6376	–	–	27.35
[2], 283.15 K, x2 = 0.7063	949.05	–	–
[2], 283.15 K, x2 = 0.7264	–	–	28.44
[2], 283.15 K, x2 = 0.806	–	–	29.74
[2], 283.15 K, x2 = 0.8072	980.93	–	–
[2], 283.15 K, x2 = 0.902	–	–	31.92
[2], 283.15 K, x2 = 0.9076	1013.82	–	–
[2], 283.15 K, x2 = 0.9528	1029.04	–	–
[2], 283.15 K, x2 = 0.9642	–	–	33.79
[2], 298.15 K, x2 = 0.0488	751.07	–	–
[2], 298.15 K, x2 = 0.0615	–	–	22.37
[2], 298.15 K, x2 = 0.0945	762.02	–	–
[2], 298.15 K, x2 = 0.121	–	–	22.56
[2], 298.15 K, x2 = 0.1818	783.72	–	–
[2], 298.15 K, x2 = 0.1824	–	–	22.74
[2], 298.15 K, x2 = 0.2656	–	–	23.01
[2], 298.15 K, x2 = 0.2983	814.38	–	–
[2], 298.15 K, x2 = 0.3959	841.12	–	–
[2], 298.15 K, x2 = 0.4058	–	–	23.66
[2], 298.15 K, x2 = 0.4962	869.6	–	–
[2], 298.15 K, x2 = 0.5313	–	–	24.56
[2], 298.15 K, x2 = 0.6067	902	–	–
[2], 298.15 K, x2 = 0.6376	–	–	25.57
[2], 298.15 K, x2 = 0.7034	931.45	–	–
[2], 298.15 K, x2 = 0.7264	–	–	26.68
[2], 298.15 K, x2 = 0.806	–	–	27.93
[2], 298.15 K, x2 = 0.811	965.2	–	–
[2], 298.15 K, x2 = 0.902	–	–	30.03
[2], 298.15 K, x2 = 0.9025	995.13	–	–
[2], 298.15 K, x2 = 0.9506	1011.12	–	–
[2], 298.15 K, x2 = 0.9642	–	–	31.9
[2], 313.15 K, x2 = 0.0449	734.98	–	–
[2], 313.15 K, x2 = 0.0615	–	–	20.14
[2], 313.15 K, x2 = 0.094	746.73	–	–
[2], 313.15 K, x2 = 0.121	–	–	20.45
[2], 313.15 K, x2 = 0.1824	–	–	20.77
[2], 313.15 K, x2 = 0.195	771.73	–	–
[2], 313.15 K, x2 = 0.2656	–	–	21.15
[2], 313.15 K, x2 = 0.2962	798.13	–	–
[2], 313.15 K, x2 = 0.3969	825.52	–	–
[2], 313.15 K, x2 = 0.4058	–	–	21.83
[2], 313.15 K, x2 = 0.4983	854.12	–	–
[2], 313.15 K, x2 = 0.5313	–	–	22.62
[2], 313.15 K, x2 = 0.5994	883.66	–	–
[2], 313.15 K, x2 = 0.6376	–	–	23.59
[2], 313.15 K, x2 = 0.6987	913.64	–	–
[2], 313.15 K, x2 = 0.7264	–	–	24.72
[2], 313.15 K, x2 = 0.8026	946.08	–	–
[2], 313.15 K, x2 = 0.806	–	–	26.05
[2], 313.15 K, x2 = 0.902	–	–	28.24
[2], 313.15 K, x2 = 0.9066	979.72	–	–
[2], 313.15 K, x2 = 0.9482	993.49	–	–
[2], 313.15 K, x2 = 0.9642	–	–	30.03
